A value given as a limit tells only on which side of the number the result lay.

The values that follow come from ChEMBL document CHEMBL5390258, “Recent Progress and Prospects of Small Molecules for NLRP3 Inflammasome Inhibition” (J Med Chem, 2023).

Data set [1] has as its target T1, NACHT, LRR and PYD domains-containing protein 3 (Homo sapiens, UniProt Q96P20). The experiment in a line: Inhibition of NLRP3 in human PBMC cells assessed as reduction in Il-1beta production preincubated for 0.5 hrs followed by LPS treatment for […] and further addition of ATP measured after 45 mins. It counts as cell-based.
Data set [2] deals with T1, NACHT, LRR and PYD domains-containing protein 3. The experiment in a line: Inhibition of NLRP3 in human PBMC cells assessed as reduction in TNFalpha level preincubated for 0.5 hrs followed by LPS treatment for […] and further addition of ATP measured after 45 mins. It counts as cell-based.
The target of data set [3] is T2, NACHT, LRR and PYD domains-containing protein 3 (Mus musculus, UniProt Q8R4B8). The experiment in a line: Inhibition of NLRP3 in mouse J774A.1 cells assessed as reduction of IL-1beta production. It counts as cell-based, J774.A1.
T2 sequence (Q8R4B8 whole entry, the tested form may be a part): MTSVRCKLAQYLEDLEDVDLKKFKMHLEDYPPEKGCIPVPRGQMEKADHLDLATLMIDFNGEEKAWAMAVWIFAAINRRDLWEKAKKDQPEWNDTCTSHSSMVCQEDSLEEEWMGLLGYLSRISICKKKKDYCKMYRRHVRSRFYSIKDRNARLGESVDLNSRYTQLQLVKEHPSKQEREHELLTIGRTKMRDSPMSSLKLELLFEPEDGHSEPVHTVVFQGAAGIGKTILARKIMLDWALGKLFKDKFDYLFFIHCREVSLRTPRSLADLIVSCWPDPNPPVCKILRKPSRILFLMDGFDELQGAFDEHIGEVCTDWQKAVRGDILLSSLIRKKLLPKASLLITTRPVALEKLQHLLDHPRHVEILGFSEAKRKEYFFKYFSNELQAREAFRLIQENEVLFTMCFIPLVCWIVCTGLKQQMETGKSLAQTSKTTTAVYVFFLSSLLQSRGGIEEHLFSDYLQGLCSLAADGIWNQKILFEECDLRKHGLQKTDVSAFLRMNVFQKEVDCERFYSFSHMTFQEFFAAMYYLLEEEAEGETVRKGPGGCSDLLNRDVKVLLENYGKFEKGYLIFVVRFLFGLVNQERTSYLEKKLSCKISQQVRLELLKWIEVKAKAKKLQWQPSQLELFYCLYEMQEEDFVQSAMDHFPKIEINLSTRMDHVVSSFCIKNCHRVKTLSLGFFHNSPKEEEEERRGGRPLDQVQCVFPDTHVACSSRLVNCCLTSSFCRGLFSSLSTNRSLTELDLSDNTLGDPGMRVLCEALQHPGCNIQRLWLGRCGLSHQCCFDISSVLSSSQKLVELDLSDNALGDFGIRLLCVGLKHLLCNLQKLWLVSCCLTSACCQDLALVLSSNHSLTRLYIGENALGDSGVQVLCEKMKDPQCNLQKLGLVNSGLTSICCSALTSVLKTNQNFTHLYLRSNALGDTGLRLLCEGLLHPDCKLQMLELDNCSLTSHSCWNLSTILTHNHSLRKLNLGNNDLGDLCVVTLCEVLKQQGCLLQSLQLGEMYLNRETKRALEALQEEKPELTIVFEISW
The nature of data set [4]: Inhibition of NLRP3 in LPS induced PBMC (unknown origin) assessed as reduction in IL-1beta production preincubated 0.5 hrs followed by nigericin addition measured after 1 hrs by ELISA assay. It counts as cell-based. Background: In an ELISA, binding on a coated surface is turned into a signal by an enzyme label.
For data set [5], the target named is T1, NACHT, LRR and PYD domains-containing protein 3. Nature of the data set: Inhibition of NLRP3 in human THP-1 cells assessed as reduction in caspase 1 level. It counts as cell-based.
Data set [6] shares this target. The experiment in a line: Inhibition of NLRP3 in human THP-1 cells assessed as reduction in IL-1beta production by AlphaLISA assay. It counts as cell-based. Background: Alpha assays give light when donor and acceptor beads are brought close together.
A short description of data set [7]: Oral bioavailability in Sprague-Dawley rat measured upto 24 hrs by LC-MS/MS analysis. It counts as ADME, organism-based. Conditions: in vivo.
The target in data set [8] is T1, NACHT, LRR and PYD domains-containing protein 3. The experiment in a line: Inhibition of NLRP3 in human THP-1 cells assessed as reduction in IL-1beta production pre incubated for 3 hrs followed by nigericin addition measured after 1 hrs by resazurin staining based assay. It counts as cell-based.
Data set [9] is described as follows: Inhibition of NLRP3 in PBMC cells (unknown origin) assessed as reduction in IL-1beta production measured after 2 hrs by ELISA assay. It counts as cell-based.
In data set [10] the target is T1, NACHT, LRR and PYD domains-containing protein 3. Nature of the data set: Inhibition of NLRP3 in human THP-1 cells assessed as reduction in IL-1beta production measured after 3 hrs by resazurin staining based assay. It counts as cell-based. A general note: Alamar Blue is a resazurin reagent that responds to reducing activity.
The target is the same in data set [11]. The experiment in a line: Inhibition of NLRP3 in human MDM cells assessed as reduction in IL-1beta production measured after 3 hrs by AlphaLISA assay. It counts as cell-based.
Data set [12] concerns the target T2, NACHT, LRR and PYD domains-containing protein 3. Nature of the data set: Inhibition of NLRP3 in mouse BMDM assessed as reduction in IL-1beta production preincubated for 3 hrs followed by ATP measured after 45 mins by ELISA assay. It counts as cell-based.
Data set [13] concerns THP-1. Nature of the data set: Induction of pyroptosis in PMA-differentiated human THP-1 cells at 10 uM in presence of ATP by CytoTox 96 nonradioactive assay relative to control. It counts as functional.
The nature of data set [14]: Cytotoxicity against human THP-1 cells assessed as reduction in cell viability measured after 72 hrs by MTT assay. It counts as toxicity, cell-based. Conditions: read-out: TC50.
For data set [15], the target named is T2, NACHT, LRR and PYD domains-containing protein 3. Nature of the data set: Inhibition of NLRP3 in mouse BMDM cells assessed as reduction in IL-1beta production. It counts as cell-based.
Data set [16] has the same target. The experiment in a line: Inhibition of NLRP3 in LPS induced mouse BMDM cells assessed as reduction in IL-1beta production measured after 30 mins by ELISA assay. It counts as cell-based.
The target in data set [17] is T1, NACHT, LRR and PYD domains-containing protein 3. The experiment in a line: Inhibition of NLRP3 in LPS induced human PBMC cells assessed as reduction in IL-1beta preincubated for 30 mins followed by ATP addition measured after 1 hrs HTRF assay. It counts as cell-based.
Data set [18] has as its target T2, NACHT, LRR and PYD domains-containing protein 3. The experiment in a line: Inhibition of NLRP3 in mouse BMDM cells assessed as reduction in IL-1beta production preincubated for 30 mins followed by ATP addition measured after 45 mins by ELISA assay. It counts as cell-based.
Data set [19] concerns the target T1, NACHT, LRR and PYD domains-containing protein 3. The experiment in a line: Inhibition of NLRP3 in LPS induced human THP-1 cells assessed as reduction in IL-1beta production preincubated for 3 hrs followed by nigericin addition measured after 1 hrs by resazurin staining based assay. It counts as cell-based.
Data set [20] has the same target. The experiment in a line: Inhibition of NLRP3 in LPS induced human Whole blood cell assessed as reduction in IL-1beta production preincubated for 3 hrs followed by nigericin measured after 1 hrs by resazurin staining based assay. It counts as tissue-based.
For data set [21] the target is unchanged. Nature of the data set: Inhibition of NLRP3 in human Whole blood cell assessed as reduction in IL-1beta production incubated for overnight in presence of ATP by ELISA. It counts as tissue-based.
The target is the same in data set [22]. Nature of the data set: Inhibition of NLRP3 in human PBMC cells assessed as reduction in IL-1beta production. It counts as cell-based.
Data set [23] has as its target T2, NACHT, LRR and PYD domains-containing protein 3. The experiment in a line: Inhibition of NLRP3 in mouse BMDM cells assessed as reduction in IL-1beta production measured after 3 hrs. It counts as cell-based.
Data set [24] addresses T1, NACHT, LRR and PYD domains-containing protein 3. The experiment in a line: Inhibition of NLRP3 in human THP-1 cells assessed as reduction in IL-1beta production measured after 3 hrs by AlphaLISA assay. It counts as cell-based.
The target is the same in data set [25]. The experiment in a line: Inhibition of NLRP3 (unknown origin) assessed as reduction of IL-1beta production.
Data set [26] can be described thus: Lipophilicity, logP of the compound. It counts as physicochemical. The note with it: octanol/water.
For data set [27], the target named is T2, NACHT, LRR and PYD domains-containing protein 3. The experiment in a line: Inhibition of NLRP3 in LPS induced mouse BV-2 cells assessed as reduction in IL-1beta production pretreated for 30 mins followed by nigericin addition measured after 2 hrs by ELISA assay. It counts as cell-based.
Data set [28] has as its target T1, NACHT, LRR and PYD domains-containing protein 3. Nature of the data set: Inhibition of NLRP3 in human THP-1 cells assessed as reduction in IL-1beta production by ELISA. It counts as cell-based.
For data set [29] the target is unchanged. The experiment in a line: Inhibition of NLRP3 in human PBMC cells assessed as reduction in Il-1beta production at 0.5 uM relative to control. It counts as cell-based.
For data set [30], the system named is THP-1. The experiment in a line: Antiinflammatory activity against PMA-differentiated human THP-1 cells assessed as reduction of IL-1beta production measured after 2 hrs. It counts as functional, cell-based. The note with it: THP-1, 2 h.
Data set [31] deals with T1, NACHT, LRR and PYD domains-containing protein 3. Nature of the data set: Inhibition of NLR3 in human Whole blood cell assessed as reduction in IL-1beta production preincubated for 0.5 hrs followed by LPS treatement for […] and further addition of ATP measured after 45 mins by ELISA assay. It counts as tissue-based.

T1 sequence (Q96P20 whole entry, the tested form may be a part): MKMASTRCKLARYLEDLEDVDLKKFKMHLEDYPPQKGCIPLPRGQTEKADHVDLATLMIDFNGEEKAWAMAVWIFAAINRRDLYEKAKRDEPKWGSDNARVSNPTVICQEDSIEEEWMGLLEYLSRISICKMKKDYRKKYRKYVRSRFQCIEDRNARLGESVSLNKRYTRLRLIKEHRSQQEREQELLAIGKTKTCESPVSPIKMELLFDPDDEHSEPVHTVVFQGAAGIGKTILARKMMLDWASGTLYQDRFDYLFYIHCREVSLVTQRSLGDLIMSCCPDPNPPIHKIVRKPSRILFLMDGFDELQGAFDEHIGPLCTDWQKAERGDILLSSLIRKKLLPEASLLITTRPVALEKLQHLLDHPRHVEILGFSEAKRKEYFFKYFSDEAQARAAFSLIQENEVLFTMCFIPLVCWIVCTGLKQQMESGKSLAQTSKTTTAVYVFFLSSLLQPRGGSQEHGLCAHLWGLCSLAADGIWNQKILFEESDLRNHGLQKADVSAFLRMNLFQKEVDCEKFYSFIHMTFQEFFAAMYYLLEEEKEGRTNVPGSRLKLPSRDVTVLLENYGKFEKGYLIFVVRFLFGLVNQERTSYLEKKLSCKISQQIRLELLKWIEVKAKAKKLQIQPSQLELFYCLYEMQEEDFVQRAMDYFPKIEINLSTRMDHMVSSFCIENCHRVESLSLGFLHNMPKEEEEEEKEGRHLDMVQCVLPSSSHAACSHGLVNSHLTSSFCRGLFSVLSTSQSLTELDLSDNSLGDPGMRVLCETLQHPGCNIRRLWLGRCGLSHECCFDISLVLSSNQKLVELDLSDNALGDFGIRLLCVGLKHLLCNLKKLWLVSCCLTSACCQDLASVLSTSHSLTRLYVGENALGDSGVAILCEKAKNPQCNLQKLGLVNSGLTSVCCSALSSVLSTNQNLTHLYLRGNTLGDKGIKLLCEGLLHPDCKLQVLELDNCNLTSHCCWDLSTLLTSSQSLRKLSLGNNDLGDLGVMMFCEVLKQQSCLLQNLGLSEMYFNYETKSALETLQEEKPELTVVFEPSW

Take `CC(C)c1nn(CC(=O)Nc2ccncn2)c(=O)c2cccn12`: the 50% inhibitory concentration (IC50) in [1] and in [2] was greater than 10000 nM each time.

Take `Cc1ccc(S(=O)(=O)/C=C/C#N)cc1`: the IC50 (as a rule, the concentration needed to halve the response being measured) in [3] was 1540 nM.

`CCOC(=O)C(Cn1cc(F)cn1)OC(=O)Nc1c2c(cc3c1CCC3)CCC2` (configuration not stated): in [4], the IC50 is less than 10 nM.

Consider `C=CCN1C(=O)/C(=C2/C(=O)Nc3ccccc32)SC1=S`, for which the IC50 in [5] is 500 nM.

For the compound `O=C1Nc2c(ccc3c2CCC3)-c2ccnc(c2)OCCn2cc(F)c(n2)S(=O)(=O)N1`, in [6], the IC50 was less than 100 nM.

Consider `CCN1CCC(S(=O)(=O)NC(=O)Nc2c3c(cc4c2CCC4)CCC3)CC1` [SELNOFLAST], for which, in [7], the bioavailability (usually the share of a dose that reaches the circulation, judged against a reference dose that is usually intravenous) came out at 76.7%. In [8], the IC50 is no more than 1000 nM.

`Cn1cc(N(C[C@@H]2CCCO2)CS(=O)(=O)NC(=O)Nc2c3c(cc4c2CC4)CCC3)cn1`: the IC50 in data set [9] was less than 100 nM.

In the case of `O=C(Nc1c2c(cc3c1CCO3)CCC2)NS(=O)(=O)c1ccn(C2CC2)n1`, the IC50 in [10] is no more than 250 nM.

Turning to `CC(C)(O)c1ccc2c(c1)[S+]([O-])(NC(=O)Nc1c3c(cc4c1CCC4)CCC3)=NC2=O` (configuration not stated), the IC50 in data set [11] is less than 1000 nM.

As for `C[C@@]1(O)CCCc2oc(S(=O)(=O)NC(=O)Nc3c4c(cc5c3CCC5)CCC4)cc21`, the IC50 in data set [12] is less than 100 nM.

For the compound `C=C(Cc1ccccc1Cl)C(=O)NCCc1ccc(S(N)(=O)=O)cc1`, the Activity with THP-1 [13] was 80.9%. For the same compound, the CC50 at 72 h in data set [14] is greater than 100000 nM.

As for `O=C(CBr)C1CCC1`, the IC50 in [15] is roughly 5000 nM.

In the case of `CCC(CC)CN1C(=O)/C(=C/c2ccccc2S(C)(=O)=O)SC1=S`, the half-maximal inhibitory concentration (IC50) in data set [16] stood at 1400 nM.

With `CC(C)OC(=O)c1nc(Nc2c3c(cc4c2CCC4)CCC3)cs1`, in data set [17], the IC50 is less than 1000 nM.

With `CC(C)c1cc(F)cc(C(C)C)c1NC(=O)NS(=O)(=O)c1cc2c(o1)CCCC2(C)O` (configuration not stated), the IC50 in data set [18] is less than 100 nM.

As to `Cn1ncc2ccc(S(=O)(=O)NC(=O)Nc3c4c(cc5c3CCC5)CCC4)cc21`, the 50% inhibitory concentration (IC50) in [19] was less than 1000 nM.

With `O=S1(=O)c2nnc([nH]2)Nc2c(ccc3c2CCC3)-c2ccnc(c2)OCCCN2CCC3(CC1C3)C2`, the half-inhibitory concentration (IC50) in data set [19] is no more than 100 nM.

With `COc1cc(-c2ccc3c(c2NC(=O)NS(=O)(=O)c2cn(C(C)C)c(=O)cn2)CCC3)ccn1`, the concentration for half-maximal inhibition (IC50) in data set [20] is less than 1000 nM.

As to `O=C(Nc1c(C2CC2)ccc2c1CCC2)NS(=O)(=O)c1cc2c(o1)C1CCN(CC1)C2`, the IC50 in [21] is less than 1000 nM.

As to `C=C1C(=O)[C@]23[C@H](O)[C@@H]1CC[C@H]2[C@@]12CO[C@@]3(O)[C@@H](O)[C@@H]1C(C)(C)CC[C@@H]2O`, the IC50 in [22] stood at 5180 nM.

Take `CC1(O)CCCc2oc(S(=O)(=O)NC(=O)Nc3c4c(c(Br)c5c3CCC5)CCC4)cc21` (configuration not stated): the IC50 in [23] is less than 100 nM.

For the compound `COC(C)(C)Cn1ccc(S(=O)(=O)c2nnc(Nc3c4c(cc5c3CCC5)CCC4)[nH]2)n1`, the IC50 in data set [24] is less than 500 nM.

With `NS(=O)(=O)c1cccc(/C=C2\SC(=S)N(CC3CCCCC3)C2=O)c1`, the IC50 in data set [16] was 900 nM.

On to `COc1ccc(Cl)cc1C(=O)NCCc1ccc(S(=O)(=O)NO)cc1`, for which the IC50 in data set [25] was 8450 nM. In [26], the logP (usually the decadic logarithm of the partition coefficient of the neutral form, usually between octanol and water) stood at 0.19.

For `CC(C)(O)c1coc(S(=O)(=O)NC(=O)Nc2c3c(cc4c2CCC4)CCC3)c1`, in data set [27], the half-inhibitory concentration (IC50) amounted to 3930 nM.

As to `CC1(C)CCc2c1cc1c(c2NC(=O)NS(=O)(=O)c2ccnn2CCCB(O)O)CCC1`, in data set [28], the IC50 is less than 1000 nM.

In the case of `C=C1C(=O)[C@@]23C(CC[C@@H]1[C@H]2OC(=O)/C=C/c1ccc(N2CCOCC2)cc1)[C@@]12CO[C@]3(O)[C@@H](O)[C@@H]1C(C)(C)CC[C@@H]2O` (some centres not stated), in [29], the inhibition – broadly, the change of the read-out against control, counted positive when it falls – was found to be 2.94%.

For `O=C(Nc1c2c(cc3c1CC3)CCC2)NS(=O)(=O)c1cnn2c1OCCC2`, the IC50 with THP-1 [30] amounted to 200 nM.

As to `O=C(Nc1c2c(cc3c1CCC3)CCC2)NS(=O)(=O)c1cc2c(o1)C1CCN(CC1)C2`, the half-maximal inhibitory concentration (IC50) in [31] is less than 1000 nM.

On to `CC(C)OC(=O)C(Cc1ncccn1)OC(=O)N[C@@H](C)c1ccc(C(F)(F)F)cc1` (some centres not stated), for which the concentration for half-maximal inhibition (IC50) in data set [4] was less than 1000 nM.

Take `O=C(/C=C/S(=O)(=O)c1ccccc1Cl)NCCc1ccccc1`: in [3], the IC50 is 910 nM.

Regarding `COC(=O)c1cccc(C(=O)NC2(C(=O)Nc3c4c(cc5c3CCC5)CCC4)CC2)c1`, in data set [27], the IC50 came to 2050 nM.

Turning to `CC(C)c1cc(F)cc2c1CC(=O)NS(=O)(=O)c1ccn(n1)C(C)(C)COc1cc-2ccn1`, in data set [24], the 50% inhibitory concentration (IC50) is no more than 100 nM.
